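Values below derive from 48-hour exposures of cells grown in 96-well plates, with endpoints linearly interpolated between the two concentrations bracketing the appropriate inhibition level. Abbreviation: GI50, concentration required for 50% inhibition of growth.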 Active and inactive are the calls of the source. No stated cut-off is given here; in the data, active = GI50 up to about 1.1 µM and inactive = higher.
Assays:
Assay in all cases: DTP human tumour cell line panel, 48 h
CCRF-CEM = system: CCRF-CEM
COLO 205 = system: COLO 205
DU-145 = system: DU-145
HCC 2998 = system: HCC 2998
HOP-92 = system: HOP-92
HT-29 = system: HT-29
Hs-578T = system: Hs-578T
LOX IMVI = system: LOX IMVI
MCF7 = system: MCF7
MDA-N = system: MDA-N
Malme-3M = system: Malme-3M
NCI-H23 = system: NCI-H23
OVCAR-4 = system: OVCAR-4
SF-268 = system: SF-268
SF-295 = system: SF-295
SK-MEL-28 = system: SK-MEL-28
SNB-19 = system: SNB-19
SNB-75 = system: SNB-75
T47D = system: T47D
UACC-257 = system: UACC-257

Measured: GI50

Cc1nn(C(=O)c2ccc(Cl)cc2)c2c1C(c1ccc([N+](=O)[O-])cc1)SC(=N)N2 (stereo not given)
inactive: CCRF-CEM > 10 µM | COLO 205 > 10 µM | DU-145 > 10 µM | HCC 2998 > 10 µM | HOP-92 > 10 µM | HT-29 > 10 µM | Hs-578T > 10 µM | LOX IMVI > 10 µM | MCF7 > 10 µM | MDA-N > 10 µM | Malme-3M > 10 µM | NCI-H23 > 10 µM | OVCAR-4 > 10 µM | SF-268 > 10 µM | SF-295 > 10 µM | SK-MEL-28 > 10 µM | SNB-19 > 10 µM | SNB-75 > 10 µM | T47D > 10 µM | UACC-257 > 10 µM

C=CCN(c1cc(O)c2c(c(C)cn2S(=O)(=O)c2ccccc2)c1[N+](=O)[O-])S(C)(=O)=O
inactive: CCRF-CEM > 100 µM | COLO 205 > 100 µM | DU-145 > 100 µM | HCC 2998 > 100 µM | HOP-92 > 100 µM | HT-29 > 100 µM | Hs-578T > 100 µM | LOX IMVI 69.2 µM | MCF7 > 100 µM | MDA-N 36.9 µM | Malme-3M > 100 µM | NCI-H23 > 100 µM | OVCAR-4 > 100 µM | SF-268 > 100 µM | SF-295 48.5 µM | SK-MEL-28 > 100 µM | SNB-19 > 100 µM | SNB-75 > 100 µM | T47D 40.7 µM | UACC-257 > 100 µM

NC(=O)c1cccc([C@@H]2O[C@H](CO)[C@@H](O)[C@H]2O)c1
inactive: CCRF-CEM 1.33 µM | COLO 205 12.2 µM | DU-145 30.6 µM | HCC 2998 29.3 µM | HOP-92 18.5 µM | HT-29 16.2 µM | Hs-578T 10.5 µM | LOX IMVI 36 µM | MCF7 > 37.3 µM | MDA-N 24.1 µM | Malme-3M > 100 µM | NCI-H23 10.3 µM | OVCAR-4 5.45 µM | SF-268 6.81 µM | SF-295 9.06 µM | SK-MEL-28 6.98 µM | SNB-19 14 µM | SNB-75 4.18 µM | T47D > 35.8 µM | UACC-257 > 100 µM

Cc1ccc(-c2nc(N/N=C/C=C/c3ccccc3)c3ccccc3n2)cc1
inactive: CCRF-CEM > 100 µM | COLO 205 57.3 µM | DU-145 25.9 µM | HCC 2998 28.4 µM | HOP-92 31.3 µM | HT-29 32.8 µM | Hs-578T > 100 µM | LOX IMVI 48.6 µM | MCF7 14 µM | MDA-N 74.6 µM | Malme-3M 30 µM | NCI-H23 44.1 µM | OVCAR-4 50.5 µM | SF-268 33.5 µM | SF-295 23.2 µM | SK-MEL-28 34.2 µM | SNB-19 37.6 µM | SNB-75 33.6 µM | T47D 60.5 µM | UACC-257 34 µM
